Tested on: amyloid deposits in heart tissue, lung tissue, bladder tissue, lymph node tissue and bone from a subject with AL amyloidosis
Assay: Imaging of tissues from AL amyloidosis subject: staining of paraffin sections, viewed with a UV filter set
Type: binding
Conditions: 100 nM stain, 60 min, deparaffinized paraffin sections from a subject with AL amyloidosis, FIG. 1
Protocol: Paraffin sections of heart, lung, bladder, lymph node and bone from a subject with AL amyloidosis were deparaffinized in xylene and stained with 100 nM X-34 [Styren et al. J Histochem Cytochem 48:1223-1232 (2000)] in 20% ethanol/80% 150 mM Tris Buffer (pH 7.4) or 100 nM 2-(4′-methylaminophenyl)-6-cyanobenzothiazole (6-CN-BTA-1) [Mathis et al. J Med Chem 46:2740-2754 (2003)] in PBS (pH 7.4) for 60 min followed by a brief, 5 second wash in water followed by coverslipping and viewing with an UV filter set (FIG. 1).

| binding to amyloid deposits in heart tissue, lung tissue, bladder tissue, lymph node tissue and bone | Compound |
| --- | --- |
| binding | CNc1ccc(-c2nc3ccc(C#N)cc3s2)cc1 [Example 6-CN-BTA-1, 2-(4′-methylaminophenyl)-6-cyanobenzothiazole] |
| binding | O=C(O)c1cc(/C=C/c2ccc(/C=C/c3ccc(O)c(C(=O)O)c3)cc2)ccc1O [Example X-34] |
